Active and inactive are the calls of the source. Rule as the data show it, for most assays here: actives have a measured Kd and inactives only a lower limit.
Assays:
[1] = biological target: T1, Aurora kinase A (Homo sapiens, UniProt O14965)
T1 sequence (O14965 whole entry): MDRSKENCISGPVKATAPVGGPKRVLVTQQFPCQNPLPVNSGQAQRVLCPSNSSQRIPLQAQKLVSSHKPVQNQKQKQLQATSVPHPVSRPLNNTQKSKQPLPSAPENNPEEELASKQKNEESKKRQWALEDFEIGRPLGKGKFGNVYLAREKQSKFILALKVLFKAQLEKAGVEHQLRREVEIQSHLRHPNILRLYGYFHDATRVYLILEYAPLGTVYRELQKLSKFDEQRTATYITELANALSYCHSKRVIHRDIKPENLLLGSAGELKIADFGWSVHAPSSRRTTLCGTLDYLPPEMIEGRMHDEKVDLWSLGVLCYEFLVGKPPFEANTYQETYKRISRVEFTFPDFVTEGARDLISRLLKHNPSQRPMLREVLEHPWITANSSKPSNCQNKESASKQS

[2] = biological target: Cyclin-dependent kinase 7 (Homo sapiens, UniProt P50613)
Chain of Cyclin-dependent kinase 7 (P50613 whole entry): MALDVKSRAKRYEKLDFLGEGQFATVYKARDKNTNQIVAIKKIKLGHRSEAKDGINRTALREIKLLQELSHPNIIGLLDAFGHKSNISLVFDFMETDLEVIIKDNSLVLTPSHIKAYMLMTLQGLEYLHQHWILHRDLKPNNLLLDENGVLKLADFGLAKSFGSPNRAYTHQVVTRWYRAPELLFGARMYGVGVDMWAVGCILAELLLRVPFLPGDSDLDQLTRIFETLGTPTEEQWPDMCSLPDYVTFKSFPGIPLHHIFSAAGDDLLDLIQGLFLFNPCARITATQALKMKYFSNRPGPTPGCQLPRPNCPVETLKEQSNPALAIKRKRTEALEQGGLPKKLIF

[3] = biological target: Serine/threonine-protein kinase/endoribonuclease IRE1 (Homo sapiens, UniProt O75460)
Chain of Serine/threonine-protein kinase/endoribonuclease IRE1 (O75460 whole entry): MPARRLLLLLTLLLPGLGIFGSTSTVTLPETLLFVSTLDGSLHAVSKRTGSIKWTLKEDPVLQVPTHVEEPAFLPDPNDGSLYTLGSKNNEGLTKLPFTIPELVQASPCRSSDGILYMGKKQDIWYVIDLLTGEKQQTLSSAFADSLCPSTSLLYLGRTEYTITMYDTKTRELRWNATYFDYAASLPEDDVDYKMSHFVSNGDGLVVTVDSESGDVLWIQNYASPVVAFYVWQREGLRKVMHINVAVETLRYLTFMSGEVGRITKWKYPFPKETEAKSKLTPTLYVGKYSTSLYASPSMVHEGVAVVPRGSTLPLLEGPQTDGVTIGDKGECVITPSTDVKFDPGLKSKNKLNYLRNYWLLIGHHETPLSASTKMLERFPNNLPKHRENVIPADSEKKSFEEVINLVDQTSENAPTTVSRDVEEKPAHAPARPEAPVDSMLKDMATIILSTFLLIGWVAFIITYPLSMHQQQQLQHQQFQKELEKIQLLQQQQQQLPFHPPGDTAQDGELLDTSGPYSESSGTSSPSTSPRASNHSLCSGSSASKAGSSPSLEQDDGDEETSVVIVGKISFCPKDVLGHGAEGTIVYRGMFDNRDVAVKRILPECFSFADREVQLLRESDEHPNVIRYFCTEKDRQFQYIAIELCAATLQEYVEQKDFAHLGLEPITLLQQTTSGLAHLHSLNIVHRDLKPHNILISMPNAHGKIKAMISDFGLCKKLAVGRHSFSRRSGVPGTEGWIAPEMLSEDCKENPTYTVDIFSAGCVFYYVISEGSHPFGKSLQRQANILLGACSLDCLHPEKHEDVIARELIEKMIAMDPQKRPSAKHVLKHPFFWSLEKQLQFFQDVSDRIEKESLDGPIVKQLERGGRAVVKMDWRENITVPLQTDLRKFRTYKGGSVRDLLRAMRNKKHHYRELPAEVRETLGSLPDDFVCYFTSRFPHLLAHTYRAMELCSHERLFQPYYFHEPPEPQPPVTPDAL

[4] = biological target: Serine/threonine-protein kinase/endoribonuclease IRE2 (Homo sapiens, UniProt Q76MJ5)
Chain of Serine/threonine-protein kinase/endoribonuclease IRE2 (Q76MJ5 whole entry): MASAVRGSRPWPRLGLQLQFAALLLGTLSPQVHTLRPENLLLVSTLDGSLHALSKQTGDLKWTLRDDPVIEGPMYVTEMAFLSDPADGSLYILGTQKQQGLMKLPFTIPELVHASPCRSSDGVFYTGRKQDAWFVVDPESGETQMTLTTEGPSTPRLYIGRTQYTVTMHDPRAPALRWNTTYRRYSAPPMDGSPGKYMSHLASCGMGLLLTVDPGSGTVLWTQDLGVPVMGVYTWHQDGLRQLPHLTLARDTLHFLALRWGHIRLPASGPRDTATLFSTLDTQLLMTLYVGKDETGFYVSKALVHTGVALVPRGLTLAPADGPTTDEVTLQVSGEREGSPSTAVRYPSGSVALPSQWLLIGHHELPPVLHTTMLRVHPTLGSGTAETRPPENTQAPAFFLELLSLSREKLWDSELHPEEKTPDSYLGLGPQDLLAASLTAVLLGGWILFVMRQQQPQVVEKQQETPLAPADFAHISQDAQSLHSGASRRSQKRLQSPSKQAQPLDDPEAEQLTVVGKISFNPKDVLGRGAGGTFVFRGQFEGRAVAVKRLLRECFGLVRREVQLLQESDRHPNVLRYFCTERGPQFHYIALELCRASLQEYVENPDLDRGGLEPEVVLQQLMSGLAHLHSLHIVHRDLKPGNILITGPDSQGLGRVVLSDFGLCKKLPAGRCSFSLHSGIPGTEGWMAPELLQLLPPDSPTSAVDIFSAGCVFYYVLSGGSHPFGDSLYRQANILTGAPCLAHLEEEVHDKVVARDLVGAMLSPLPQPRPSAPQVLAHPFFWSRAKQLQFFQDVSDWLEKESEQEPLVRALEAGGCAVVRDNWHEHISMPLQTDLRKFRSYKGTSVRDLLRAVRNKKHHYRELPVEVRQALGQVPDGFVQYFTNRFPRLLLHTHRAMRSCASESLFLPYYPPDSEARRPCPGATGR

[5] = biological target: Serine/threonine-protein kinase pim-1 (Homo sapiens, UniProt P11309)
Chain of Serine/threonine-protein kinase pim-1 (P11309 whole entry): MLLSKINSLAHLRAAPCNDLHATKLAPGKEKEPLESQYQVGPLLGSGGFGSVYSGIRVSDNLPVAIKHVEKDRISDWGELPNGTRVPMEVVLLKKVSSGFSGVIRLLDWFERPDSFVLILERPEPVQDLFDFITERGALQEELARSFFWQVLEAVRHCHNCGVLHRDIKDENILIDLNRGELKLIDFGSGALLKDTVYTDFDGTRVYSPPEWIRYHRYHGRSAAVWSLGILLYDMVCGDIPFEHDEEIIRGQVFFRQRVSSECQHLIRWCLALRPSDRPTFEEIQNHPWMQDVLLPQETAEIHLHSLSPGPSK

[6] = biological target: T2, Membrane-associated tyrosine- and threonine-specific cdc2-inhibitory kinase (Homo sapiens, UniProt Q99640)
T2 sequence (Q99640 whole entry): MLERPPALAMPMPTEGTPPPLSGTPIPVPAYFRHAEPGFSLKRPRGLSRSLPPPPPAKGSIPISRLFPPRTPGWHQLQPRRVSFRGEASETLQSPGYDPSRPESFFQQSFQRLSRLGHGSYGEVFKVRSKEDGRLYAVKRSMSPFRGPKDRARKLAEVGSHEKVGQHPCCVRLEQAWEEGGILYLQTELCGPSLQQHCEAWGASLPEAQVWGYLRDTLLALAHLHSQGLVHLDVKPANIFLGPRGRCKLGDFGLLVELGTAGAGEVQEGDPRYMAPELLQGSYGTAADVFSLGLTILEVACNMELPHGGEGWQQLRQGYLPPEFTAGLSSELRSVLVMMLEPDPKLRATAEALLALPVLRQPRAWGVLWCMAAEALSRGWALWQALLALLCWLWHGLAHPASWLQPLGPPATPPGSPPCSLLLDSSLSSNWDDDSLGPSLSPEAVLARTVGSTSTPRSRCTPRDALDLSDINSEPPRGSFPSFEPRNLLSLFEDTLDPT

[7] = biological target: T3, Serine/threonine-protein kinase TAO1 (Homo sapiens, UniProt Q7L7X3)
T3 sequence (Q7L7X3 whole entry): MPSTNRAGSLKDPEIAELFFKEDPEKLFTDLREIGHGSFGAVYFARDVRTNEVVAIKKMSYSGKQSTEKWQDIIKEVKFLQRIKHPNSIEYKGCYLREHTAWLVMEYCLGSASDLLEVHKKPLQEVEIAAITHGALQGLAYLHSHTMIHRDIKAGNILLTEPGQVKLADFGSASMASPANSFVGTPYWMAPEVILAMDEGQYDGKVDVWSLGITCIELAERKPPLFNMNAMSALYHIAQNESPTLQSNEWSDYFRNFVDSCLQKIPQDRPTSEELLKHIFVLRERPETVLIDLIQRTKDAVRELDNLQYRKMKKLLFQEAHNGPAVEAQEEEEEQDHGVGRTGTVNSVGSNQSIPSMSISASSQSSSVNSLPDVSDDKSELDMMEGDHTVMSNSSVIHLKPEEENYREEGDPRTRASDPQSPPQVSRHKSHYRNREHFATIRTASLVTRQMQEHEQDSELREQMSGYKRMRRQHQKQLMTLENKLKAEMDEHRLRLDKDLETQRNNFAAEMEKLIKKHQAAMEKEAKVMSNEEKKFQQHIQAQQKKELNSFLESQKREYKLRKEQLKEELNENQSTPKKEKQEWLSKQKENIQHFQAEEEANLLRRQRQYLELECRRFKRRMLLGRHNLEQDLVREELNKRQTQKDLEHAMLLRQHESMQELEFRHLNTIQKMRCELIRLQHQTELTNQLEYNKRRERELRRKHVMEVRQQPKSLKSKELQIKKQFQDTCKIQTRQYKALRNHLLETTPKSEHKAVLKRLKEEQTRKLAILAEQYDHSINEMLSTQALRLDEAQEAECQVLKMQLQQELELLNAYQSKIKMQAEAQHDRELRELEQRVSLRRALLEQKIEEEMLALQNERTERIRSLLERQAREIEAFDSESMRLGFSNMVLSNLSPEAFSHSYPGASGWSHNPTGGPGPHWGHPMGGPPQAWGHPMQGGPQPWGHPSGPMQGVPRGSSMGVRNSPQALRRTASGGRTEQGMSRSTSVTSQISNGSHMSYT

[8] = biological target: T4, General transcription and DNA repair factor IIH helicase subunit XPD (Homo sapiens, UniProt P18074); details: read-out: Kd apparent; k-562, colo 205, sk-n-be(2) and mv-4-11
T4 sequence (P18074 whole entry): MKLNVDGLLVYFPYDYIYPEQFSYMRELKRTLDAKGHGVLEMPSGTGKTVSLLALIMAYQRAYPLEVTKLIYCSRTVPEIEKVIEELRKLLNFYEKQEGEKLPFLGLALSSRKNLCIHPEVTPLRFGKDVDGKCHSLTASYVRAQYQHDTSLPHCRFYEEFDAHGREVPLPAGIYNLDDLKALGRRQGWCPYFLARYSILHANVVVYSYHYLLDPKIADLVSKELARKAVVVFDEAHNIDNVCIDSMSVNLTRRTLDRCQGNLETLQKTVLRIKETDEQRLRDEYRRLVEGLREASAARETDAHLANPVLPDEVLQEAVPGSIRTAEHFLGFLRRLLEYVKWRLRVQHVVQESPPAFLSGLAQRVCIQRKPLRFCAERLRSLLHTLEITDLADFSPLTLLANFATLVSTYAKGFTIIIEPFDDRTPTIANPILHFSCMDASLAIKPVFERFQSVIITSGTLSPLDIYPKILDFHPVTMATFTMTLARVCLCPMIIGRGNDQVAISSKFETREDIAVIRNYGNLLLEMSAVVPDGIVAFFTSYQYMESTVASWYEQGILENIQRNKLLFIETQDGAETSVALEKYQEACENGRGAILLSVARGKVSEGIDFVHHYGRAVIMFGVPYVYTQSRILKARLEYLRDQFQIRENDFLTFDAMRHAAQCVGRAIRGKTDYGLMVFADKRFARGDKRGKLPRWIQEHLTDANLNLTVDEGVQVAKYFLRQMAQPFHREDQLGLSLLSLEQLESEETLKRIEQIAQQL

Measured: Kd
Also: in the data inactive means no Kd found up to 30 µM.

O=C(Nc1ccc(OC(F)(F)F)cc1)c1sccc1NCc1ccnc2ccccc12 [OSI-930]
inactive: [1] > 30 µM | [2] > 30 µM | [3] > 30 µM | [4] > 30 µM | [5] > 30 µM | [6] > 30 µM | [7] > 30 µM | [8] > 30 µM

C=CCN(/C=C1/C(=O)O[C@H](COC)[C@@]2(C)C1=C(O)C(=O)C1=C2[C@H](OC(C)=O)C[C@]2(C)C(=O)CC[C@@H]12)CC=C [SONOLISIB]
inactive: [1] > 30 µM | [2] > 30 µM | [3] > 30 µM | [4] > 30 µM | [5] > 30 µM | [6] > 30 µM | [7] > 30 µM | [8] > 30 µM

C[C@@H]1COC(Nc2ccc3ncnc(Nc4ccc(OCc5nccs5)c(Cl)c4)c3c2)=N1 [VARLITINIB]
inactive: [1] > 30 µM | [2] > 30 µM | [3] > 30 µM | [4] > 30 µM | [5] > 30 µM | [6] > 30 µM | [7] > 30 µM | [8] > 30 µM

Cc1c(NC(=O)OC[C@@H]2COCCN2)cn2ncnc(Nc3ccc4c(cnn4Cc4cccc(F)c4)c3)c12 [AC-480]
inactive: [1] > 30 µM | [2] > 30 µM | [3] > 30 µM | [4] > 30 µM | [5] > 30 µM | [6] > 30 µM | [7] > 30 µM | [8] > 30 µM

COc1ccc(-c2ccc3ncc4c(c3c2)n(-c2ccc(N3CCNCC3)c(C(F)(F)F)c2)c(=O)n4C)cn1 [BGT-226 FREE BASE]
inactive: [1] > 30 µM | [2] > 30 µM | [3] > 30 µM | [4] > 30 µM | [5] > 30 µM | [6] > 30 µM | [7] > 30 µM | [8] > 30 µM

CCc1cc2c(cc1N1CCC(N3CCOCC3)CC1)C(C)(C)c1[nH]c3cc(C#N)ccc3c1C2=O [ALECTINIB]
inactive: [1] > 30 µM | [2] > 30 µM | [3] > 30 µM | [4] > 30 µM | [5] > 30 µM | [6] > 30 µM | [7] > 30 µM | [8] > 30 µM

O=S(=O)(c1cccc2c(O)nccc12)N1CCCNCC1 [HYDROXYFASUDIL]
inactive: [1] > 30 µM | [2] > 30 µM | [3] > 30 µM | [4] > 30 µM | [5] > 30 µM | [6] > 30 µM | [7] > 30 µM | [8] > 30 µM

Source: ChEMBL document CHEMBL3991601, “The target landscape of clinical kinase drugs” (Science, 2017)
